A short description of one series: Hepatocyte Cl human. It counts as in vitro ADME. The following applies: human hepatocytes. On the procedure: Hep Cl human: in vitro hepatocyte clearance in human cells.
(§1) Clu: in vitro clearance. Clu as defined here is the scaled clearance, in turn calculated from the intrinsic clearance. The intrinsic clearance is the predicted clearance due to hepatic metabolic reactions, determined from incubation of a compound in a hepatocyte preparation.

Series [1] is described as follows: Plasma free fraction, equilibrium dialysis. The series is classed as in vitro ADME. To be noted: mouse plasma; read-out: Binding Mouse Plasma fu, p. An excerpt:
Plasma fu,p: The free fraction of a compound in plasma preparation determined by in vitro equilibrium dialysis. It is understood that only unbound (free) compound is capable of engaging with the target.

Series [2] relates to P-glycoprotein (MDR1), human. Nature of the series: MDR1-MDCK flux assay. The series is classed as in vitro ADME, Canine. The following applies: dog. An excerpt: The treatment of CNS disorders, including Alzheimer's disease, Parkinson's disease, and other disorders described herein, requires drug molecules to target the brain, which requires adequate penetration of the blood brain barrier. […] The probability that a compound can cross the blood brain barrier may be measured by an in vitro flux assay utilizing a MDR1-MDCK cell monolayer (Madin-Darby Canine Kidney cells transfected with MDR-1 resulting in overexpression of the human efflux transporter P-glycoprotein). Additionally, exposure may also be measured directly in brain and plasma using in vivo animal models.
MDR1-MDCK (Madin-Darby Canine Kidney cell monolayer) (in vitro) flux assay.

The test system of a further series is TK6 cells. Description: In vitro micronucleus assay. It counts as cell-based. To be noted: 27 hours recovery. On the procedure: The micronucleus assay may be used to determine if a compound is genotoxic by evaluating the presence of micronuclei. Micronuclei may contain chromosome fragments produced from DNA breakage (clastogens) or whole chromosomes produced by disruption of the mitotic apparatus (aneugens).
Example 1 was assessed in the bacterial reverse mutation assay (Ames) and in vitro micronucleus assay. All in vitro tests were conducted with and without exogenous metabolic activation using concentrations up to those limited by cytotoxicity or insolubility.
Induction of chromosome damage was assessed using the in vitro micronucleus assay in TK6 cells. Example 1 was negative for induction of micronuclei when incubated for 3 hours in the presence of exogenous metabolic activation followed by 27 hours recovery, and also when incubated for 27 hours in the absence of exogenous metabolic activation followed by 27 hours recovery.

The next series concerns the target T1, USP30 (Mus musculus, UniProt Q3UN04).
T1 construct: brain or kidney tissue samples from compound-dosed animals; from tissue; host or cells: kidney
T1 sequence (Q3UN04 1-517): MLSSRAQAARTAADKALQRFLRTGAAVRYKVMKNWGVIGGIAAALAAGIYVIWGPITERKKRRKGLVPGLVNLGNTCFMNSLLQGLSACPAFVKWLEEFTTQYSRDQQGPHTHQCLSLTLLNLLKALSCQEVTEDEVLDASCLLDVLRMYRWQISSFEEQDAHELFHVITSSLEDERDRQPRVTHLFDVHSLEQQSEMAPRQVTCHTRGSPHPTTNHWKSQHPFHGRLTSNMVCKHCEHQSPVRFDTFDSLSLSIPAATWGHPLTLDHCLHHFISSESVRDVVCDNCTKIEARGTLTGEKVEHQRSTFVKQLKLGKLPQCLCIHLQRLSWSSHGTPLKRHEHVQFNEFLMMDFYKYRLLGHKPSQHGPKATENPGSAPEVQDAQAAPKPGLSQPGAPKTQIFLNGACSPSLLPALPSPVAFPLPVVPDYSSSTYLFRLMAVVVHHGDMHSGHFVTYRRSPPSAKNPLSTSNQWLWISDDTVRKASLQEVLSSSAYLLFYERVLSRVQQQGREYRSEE
Description: USP30 kidney tissue target engagement assay (TE ex vivo). It counts as in vivo. To be noted: Mouse kidney 10 mg/kg PO. As to the method: 50 to 100 mg of tissue was homogenised in 3× volume of lysis buffer (50 mM Tris, pH 7.5, 50 mM NaCl, 0.1% NP-40/Igepal CA-630, 0.5% CHAPS, 2 mM MgCl2, 5 mM beta-mercaptoethanol, cOmplete mini tablets EDTA free (Roche), PhosStop tablets (Roche)) using a Retch Mixer Mill (MM400). Lysate containing 60 μg protein was incubated with a final conc of 6 μM of HA-Ahx-Ahx-Ub-VME probe for 15 mins at room temperature. The reaction was stopped by addition of 5×SDS sample loading buffer and proteins separated by SDS-PAGE and western blotting. USP30 was detected using an anti-USP30 Sheep S746D antibody (MRC PPU Reagents and Services) and a rabbit anti sheep secondary IgG (H+L) horseradish peroxidase conjugated (Thermo #31480) and visualised using ECL reagent (GE #RPN2109) on a GE LAS4000 imager. Target engagement was measured by quantitation of the bands corresponding to USP30 and USP30 bound to the Ub-VME probe and expression of this proportion compared to vehicle treated control.
TE ex vivo: USP30 kidney tissue target engagement assay.

The nature of a further series: Hepatocyte Cl mouse. The following applies: mouse hepatocytes. The series is classed as in vitro ADME. As to the method:
Hep Cl mouse: in vitro hepatocyte clearance in mouse cells.
as §1

A further series is described as follows: PK mouse. It counts as in vivo. An excerpt:
Cl in vivo clearance: Pharmacokinetic measurement of the volume of plasma (or any matrix) from which a substance is completely removed per unit time.
Oral F: Oral Bioavailability.
Kpu,u is the ratio of unbound drug in brain to unbound drug in plasma and may be indicative of potential for treating peripheral and/or CNS indications.

A further series relates to TOM20 ubiquitylation. Nature of the series: TOM20-ubiquitylation assay. The series is classed as cell-based, Human. The following applies: antimycin A/oligomycin mitophagy trigger; n = 5, (0.015-0.075) printed below. An excerpt: Human cell lines can be challenged with mitochondrial depolarizing agents (ionophores (eg. CCCP, valinomycin), mitochondrial complex inhibitors (oligomycin, antimycin A)) to induce ubiquitylation of TOM20, which is then further promoted in the presence of USP30 inhibitors. TOM20 ubiquitylation is subsequently assessed through western blotting of the cell lysates, with TOM20 ubiquitylation adduct detection possible due to an 8 kDa molecule weight increase for each molecule of ubiquitin added, resulting in laddering of a TOM20 immunoreactive band. TOM20-ubiquitylation levels can be quantified using chemiluminescence densitometry of laddered immunoreactive bands.

The nature of the next series: Turbidimetric solubility. The series is classed as physicochemical. To be noted: aqueous buffer, kinetic from dmso stock. An excerpt:
Turbidimetric solubility: Test compound solution prepared in DMSO diluted into aqueous buffer.
Turbidimetry is used as the end-point by measuring absorbance at 620 nm.

The next series in a line: Log D. The series is classed as physicochemical. The following applies: pH 7.4; read-out: Log D measured at pH 7.4. An excerpt: log D: distribution co-efficient; lipophilicity measurement.

These results are taken from patent US20220315572A1, “SUBSTITUTED CYANOPYRROLIDINES WITH ACTIVITY AS USP30 INHIBITORS” (MISSION THERAPEUTICS LIMITED, priority 2019, published 2022).

Values after ≈ are worked out from the molar mass of the structure shown.

On to `C[C@@H]1C[C@@H](NC(=O)c2nnc(-c3cccc(C#N)c3)o2)CN1C#N` [Example 1, N-((3R,5R)-1-Cyano-5-methylpyrrolidin-3-yl)-5-(3-cyanophenyl)-1,3,4-oxadiazole-2-carboxamide], for which the “Hepatocyte Cl human scaled Clu” value in the series “Hepatocyte Cl human” was found to be 6 mL/min/kg. Moreover, the fraction unbound in series [1] was 0.54. Besides, the efflux ratio in [2] worked out at 81. Also, the Papp A→B in series [2] (A-B) worked out at 0.9 ×10⁻⁶ cm/s. Besides, the induction of micronuclei result in the series on TK6 cells (3 hours in the presence of exogenous metabolic activation) and in the series with TK6 cells (27 hours in the absence of exogenous metabolic activation) was “negative” each time. Also, the “TE ex vivo TE % occupancy” value came to 94% at USP30 (1 h post-dose), 89% at USP30 (4 h post-dose), 79% at USP30 (8 h post-dose) and 8% on USP30 (12 h post-dose). Moreover, the “Hepatocyte Cl mouse scaled Clu” value in “Hepatocyte Cl mouse” amounted to 45 mL/min/kg. Moreover, the “Unbound plasma Cmax/TOM20-Ub cell potency” value in “PK mouse” (10 mg/kg PO dose - mouse) is reported as 82-fold. Further, the clearance in the series “PK mouse” (blood, mouse 2 mg/kg iv, read-out: Cl blood) was 23 mL/min/kg. For the same compound, the Kp in “PK mouse” (brain and plasma (unbound), 2 mg/kg IV dose - mouse, unbound brain to unbound plasma, read-out: Kpu, u) was 0.01. The bioavailability in the series “PK mouse” (in vivo, po, mouse 10 mg/kg, read-out: Oral F (%)) is 48%. Moreover, in the series on TOM20 ubiquitylation, the “TOM20-Ub 1.5-fold gain EC1.5x (μM)” value is recorded as 0.035 (n = 5) μM. In the series “Turbidimetric solubility”, this compound yielded a solubility of 65 µM (≈ 21 µg/mL). Also, in the series “Log D”, the logD was 1.3.
